Several values for one entry are separate records, joined by “and”; a condition that tells them apart may be missing. Equal values may be shown once. Read-outs that look alike come from different tables or passages of the source.
How the values were obtained:
GluN1/GluN2C [1] = target: GluN1/GluN2C (Rattus norvegicus, UniProt Q00961); experiment: Whole-cell voltage-clamp recordings, HEK cells, GluN1/GluN2C (agonist dependence); assay type: cell-based
Method: (§1) We also evaluated the mechanism of inhibition of GluN1/GluN2C expressed in HEK cells preincubated with glycine for inhibitor 2i (DQP-997-74) by comparing inhibitor potency during the peak and steady-state current responses to glutamate application. […] The deactivation of GluN1/GluN2C receptors (0.53 ± 0.07 s) was slowed by the presence of compound 2i when applied at concentrations of 1 μM (1.3 ± 0.14 s; p = 0.001) and 3 μM (2.3 ± 0.40 s; p < 0.0001) but not at 0.1 μM (0.61 ± 0.07 s; p = 0.965) and 0.3 μM (0.88 ± 0.13 s; p = 0.115; Figure S2).
(§2) HEK293 cells (HEK, ATCC CRL-1573) were plated on glass coverslips pretreated with 0.1 mg/mL poly-D-lysine and cultured in Dulbecco’s modified Eagle medium (DMEM) plus Glutamax (GIBCO 10569-10) supplemented with 10% fetal bovine serum, 10 U/mL of penicillin, and 10 μg/mL of streptomycin at 37 °C and 5% CO2. The cells were transiently transfected with cDNA encoding rat GluN1, GluN2D, and eGFP at a ratio of 1:1:5 by using the calcium phosphate precipitation method.[48] After 24–48 h following the transfection, the cells were perfused with external recording solution that contained (in mM) 3 KCl, 150 NaCl, 0.01 EDTA, 1.0 CaCl2, 10 HEPES, and 22 D-mannitol (the pH was adjusted to 7.4 with NaOH). The patch electrodes (resistance 3–5 MΩ) were prepared from thin-walled glass micropipettes (TW150F-4, World Precision Instruments, Sarasota, FL) by a dual-stage glass micropipette puller (PC-10, Narishige, Tokyo, Japan) and filled with internal solution containing (in mM) 110 D-gluconate, 110 CsOH, 30 CsCl, 5 HEPES, 4 NaCl, 0.5 CaCl2, 2 MgCl2, 5 BAPTA, 2 NaATP, and 0.3 NaGTP. The pH was adjusted to 7.4 with CsOH; osmolality was adjusted to about 300–305 mOsmol/kg. The whole-cell current responses were evoked by application of maximally effectively concentrations of agonists (100 μM glutamate and 30 μM glycine) at a holding potential of −60 mV and recorded using an Axopatch 200B patch-clamp amplifier (Molecular Devices, Union City, CA). A two-barreled theta-glass micropipette was used for rapid solution exchange controlled by a piezoelectric translator (Burleigh Instruments, Newton, NJ). For some experiments, 500 μM NMDA and 250 μM glycine were briefly applied by pressure application from a patch pipette (tip 3–5 MΩ). The current responses were low pass filtered at 2 kHz 8-pole Bessel filter (−3 dB; Frequency Devices) and digitized at 20 kHz using Digidata 1440A acquisition system (Molecular Devices) controlled by Clampex 10.3 (Molecular Devices). All patch experiments were performed at room temperature (23 °C).
(§3) Confidence intervals were determined for the log(IC50). The time course of relaxation during inhibitor application or deactivation following rapid removal of NMDA or glutamate was fitted by the equation [drawing 5] 2 […]
(§4) μM), which is consistent with increased inhibitor potency late in the stimulus train after agonist is bound. […]
(§5) inhibition of recombinant GluN1/GluN2C receptors expressed in HEK cells. GluN1/GluN2C current responses were recorded to glutamate with pre-applied glycine and compound 2i or control (pre-applied glycine and vehicle, 0.1% DMSO; see Figure S2A). The concentration-response curves show peak and steady-state responses normalized to control (Figure S2B). A linear relationship exists between 1/τinhibition and compound 2i concentration from which kON and kOFF can be calculated (see Results, Figure S2C). The deactivation time course following rapid glutamate removal was expanded to show the slowing of receptor deactivation (τdeactivation) by compound 2i (Figure S2D). τdeactivation for individual cells as well as the mean ± SEM are plotted and data were compared by mixed effects model (F (4, 17) = 22.60, p<0.0001; asterisks indicate statistically significant differences, see Results for p -values).
(§6) 2013) and the whole cell current recordings from HEK cells of GluN1/GluN2D responses to glutamate with pre-applied (S)-2a or vehicle (0.1% DMSO). The IC50 for (S)-2a 33 (Figure S3) was 4-fold higher […]

GluN1/GluN2C [2] = target: GluN1/GluN2C (Rattus norvegicus, UniProt P35439+Q00961); experiment: as above; assay type: cell-based; conditions: for IC50: inhibitor and glycine preapplied
Method: as §1, §2, §3, §4, §5, §6

[3] = Mouse plasma and brain pharmacokinetics, IV administration; assay type: in vivo; conditions: 5 mg/kg IV; for concentration at 0.25 h / concentration at 1 h / concentration at 3 h: male, C57BL/6, mouse, intravenous, 5 mg/kg
Method: IACUC-approved protocols and animal welfare regulations outlined in the “Guide for the Care and Use of Laboratory Animals” were both followed during the pharmacokinetic evaluation of all compounds. In vivo analysis was performed by Pharmaron (IP administration, Irvine, CA) and Sai Life (IV administration, Hinjewadi Pune, Pune, India).
Nine male C57BL/6 mice were administered intravenously (IV) with solution formulation of prodrug at 5 mg/kg dose (5 mL/kg) in 5% […], 5% Solutol HS-15, and 90% saline. Blood samples (∼60 μL) were collected under light isoflurane anesthesia from a set of three mice at 0.25, 1, and 3 h. Plasma was harvested by centrifugation of blood and stored at −70 ± 10 °C until analysis. Immediately after the collection of blood, brain samples were collected from each mouse at respective time points. Brain samples were homogenized using ice-cold phosphate-buffered saline (pH 7.4), and homogenates were stored below −70 ± 10 °C until analysis. The total homogenate volume was 3 times that of the brain weight. The plasma and brain concentration–time data of compounds 2i were used for the pharmacokinetic analysis. Plasma and brain samples were quantified by the fit-for-purpose LC-MS/MS method (LLOQ: 2.06 ng/mL for plasma and 5.16 ng/mL for brain).

[4] = HEK293, linear regression of 1/τinhibition vs concentration

Sequence of GluN1/GluN2C (Rattus norvegicus, UniProt Q00961) (Q00961 20-1237, other chains not shown): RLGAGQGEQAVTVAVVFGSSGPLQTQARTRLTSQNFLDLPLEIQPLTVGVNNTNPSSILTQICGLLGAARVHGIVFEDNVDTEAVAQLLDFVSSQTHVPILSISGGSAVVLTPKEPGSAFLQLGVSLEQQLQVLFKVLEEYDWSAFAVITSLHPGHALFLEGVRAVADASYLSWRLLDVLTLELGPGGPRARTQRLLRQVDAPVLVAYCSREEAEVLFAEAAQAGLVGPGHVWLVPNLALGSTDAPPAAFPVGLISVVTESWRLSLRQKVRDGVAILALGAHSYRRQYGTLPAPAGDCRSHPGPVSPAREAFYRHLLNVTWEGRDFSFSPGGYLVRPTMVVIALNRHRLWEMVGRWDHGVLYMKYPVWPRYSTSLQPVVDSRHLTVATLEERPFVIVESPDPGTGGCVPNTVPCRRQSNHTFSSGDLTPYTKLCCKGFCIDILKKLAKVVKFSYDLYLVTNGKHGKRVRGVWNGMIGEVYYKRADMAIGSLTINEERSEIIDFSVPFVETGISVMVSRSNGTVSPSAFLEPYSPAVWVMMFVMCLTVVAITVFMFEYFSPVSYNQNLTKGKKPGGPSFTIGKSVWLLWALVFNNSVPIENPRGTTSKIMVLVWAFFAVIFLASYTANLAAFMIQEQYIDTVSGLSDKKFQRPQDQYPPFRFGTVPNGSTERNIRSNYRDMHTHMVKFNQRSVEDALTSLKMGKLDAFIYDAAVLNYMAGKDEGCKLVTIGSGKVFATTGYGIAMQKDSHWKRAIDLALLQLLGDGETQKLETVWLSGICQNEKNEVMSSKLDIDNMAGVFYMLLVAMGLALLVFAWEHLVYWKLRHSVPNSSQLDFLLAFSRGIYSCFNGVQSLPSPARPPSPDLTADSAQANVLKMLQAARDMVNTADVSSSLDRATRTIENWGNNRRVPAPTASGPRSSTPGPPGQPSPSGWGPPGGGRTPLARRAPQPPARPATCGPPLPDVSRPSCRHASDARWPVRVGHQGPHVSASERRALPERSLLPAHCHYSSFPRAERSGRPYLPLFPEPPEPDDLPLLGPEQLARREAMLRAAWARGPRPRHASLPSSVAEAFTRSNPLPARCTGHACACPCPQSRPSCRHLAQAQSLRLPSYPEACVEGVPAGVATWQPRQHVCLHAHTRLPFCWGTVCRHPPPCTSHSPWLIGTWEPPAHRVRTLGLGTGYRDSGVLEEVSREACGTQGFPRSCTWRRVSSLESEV
Sequence of GluN1/GluN2C (Rattus norvegicus, UniProt P35439+Q00961) (Q00961 20-1237, other chains not shown): as above

Structure (SMILES): O=C(O)CC(F)(F)C(=O)N1N=C(c2c(-c3ccc(Cl)cc3)c3ccccc3[nH]c2=O)CC1c1ccc(Cl)cc1 (stereo not drawn) [2i]
- deactivation of GluN1/GluN2C receptors (GluN1/GluN2C [1]; 0.1 μM compound): 0.61 ± 0.07 s
- deactivation of GluN1/GluN2C receptors (GluN1/GluN2C [1]; 0.3 μM compound): 0.88 ± 0.13 s
- deactivation of GluN1/GluN2C receptors (GluN1/GluN2C [1]; 1 μM compound): 1.3 ± 0.14 s
- deactivation of GluN1/GluN2C receptors (GluN1/GluN2C [1]; 3 μM compound): 2.3 ± 0.40 s
- koff (GluN1/GluN2C [2]; [4]): 0.27 s⁻¹
- kon (GluN1/GluN2C [2]; [4]): 800000 M⁻¹ s⁻¹
- Kd (GluN1/GluN2C [2]; from kON and kOFF): 0.33 µM
- IC50 (GluN1/GluN2C [2]; read-out: IC50 peak current responses): 5 µM
- IC50 (GluN1/GluN2C [2]; read-out: IC50 steady-state responses): 0.25 µM
- drop of plasma levels at 1 h [3]: ~10 fold
- brain calculated concentration, individual (Group 1-3) ([3]; 0.25 h): 17.9 ng/g and 13.1 ng/g
- brain calculated concentration, Mean ([3]; 0.25 h (15 min)): 14 ng/g
- plasma concentration, individual (Group 1-3) ([3]; 0.25 hr): 585 ng/mL and 766 ng/mL
- brain calculated concentration, individual (Group 1-3) ([3]; 1 h): BLQ and 6.18 ng/g
- plasma concentration, individual (Group 1-3) ([3]; 1 hr): 41.2 ng/mL and 101 ng/mL and 68.7 ng/mL
- brain calculated concentration, individual (Group 1-3) ([3]; 3 h): BLQ
- brain levels at 3 h ([3]; 3 h): BLQ
- plasma concentration, individual (Group 1-3) ([3]; 3 hr): 5.97 ng/mL and 10.2 ng/mL
- concentration at 0.25 h ([3]; brain, 0.25 h (15 min), read-out: brain calculated concentration, Mean): 13.9 ng/g
- concentration at 0.25 h ([3]; brain, 0.25 h, read-out: brain calculated concentration, individual (Group 1-3)): 10.8 ng/g
- concentration at 1 h ([3]; brain, 1 h, BLQ assumed to be 0.0, read-out: brain calculated concentration, Mean): 4.13 ng/g
- concentration at 1 h ([3]; brain, 1 h, read-out: brain calculated concentration, individual (Group 1-3)): 6.21 ng/g
- concentration at 0.25 h ([3]; plasma, 0.25 hr (15 min), read-out: plasma concentration, Mean): 642 ng/mL
- concentration at 0.25 h ([3]; plasma, 0.25 hr, read-out: plasma concentration, individual (Group 1-3)): 575 ng/mL
- concentration at 1 h ([3]; plasma, 1 hr, read-out: plasma concentration, Mean): 70.4 ng/mL
- concentration at 3 h ([3]; plasma, 3 hr, read-out: plasma concentration, Mean): 7.64 ng/mL
- concentration at 3 h ([3]; plasma, 3 hr, read-out: plasma concentration, individual (Group 1-3)): 6.78 ng/mL
